In PMC9747717, “A novel small molecule inhibitor of human Drp1” (Scientific Reports, 2022):
pKd: −log10 of the molar value.

Experiments:
[1] = molecular target: T1, human Drp1 isoform 3 (Homo sapiens, UniProt O00429); experiment: Microscale thermophoresis (MST) binding; conditions: human Drp1 isoform 3, 5% DMSO
T1 construct: His tag; made in house; host or cells: E. coli Rosetta (DE3), pET21b vector
Method: The recombinant human Drp1 protein (His-tagged human Drp1 isoform 3, kindly provided by Professor Michael Ryan, Monash University, Australia) was generated as described previously. Briefly, cDNA for human Drp1 (isoform 3) was cloned into pET21b vector and transformed in Rosetta (DE3) competent cells (Novagen, MA, Merck Millipore). Transformed cells were propagated in Luria–Bertani broth and protein expression was initiated by the addition of 0.5 mM isopropyl β-D-1-thiogalactopyranoside. Cells were harvested by centrifugation at 3,500 g for 20 min at 4 °C, and the pellet was re-suspended in lysis buffer containing 50 mM Tris HCl (pH 7.3), 500 mM NaCl, 50 mM imidazole, 2.5 mM β-mercaptoethanol, 0.01 mM LEUPEP, 0.1 mM AEBSF and 1 mM benzaminidium chloride. The cells were lysed using a pre-cooled EmulsiFlex-C5 homogenizer (Avestin, Ontario, Canada) on ice and clarified by centrifugation at 17,000 g for 30 min. The clarified cell lysate was loaded onto a 5 mL Nickel Chelating Sepharose Fast Flow column (GE Healthcare, Buckinghamshire, UK) and Drp1 protein was eluted with wash buffer containing 50 mM Tris–HCl (pH 7.6), 150 mM NaCl, 2.5 mM β-mercaptoethanol and 400 mM imidazole. […]
Compound binding was assessed in against the human Drp1 isoform-3 protein using MST Monolith NT.115 instrument (NanoTemper Technologies, Mȕnchen, Germany). […]

[2] = test system: HL-1 cells; experiment: Simulated ischaemia-reperfusion injury, cell death; assay type: cell-based, Murine; conditions: 50 µM during simulated ischaemia-reperfusion; DMSO 29.55 ± 5.45%
Method: (§1) HL-1 cells were plated in 24-well plate pre-coated with 5 μg/mL human fibronectin (Merck Millipore, MA, USA) in 0.02% porcine gelatin solution (Sigma-Aldrich, MA, USA). Cells were maintained in Claycomb media (Sigma-Aldrich) supplemented with 0.1 mM (±)-norepinephrine (+)-bitartrate salt (Sigma-Aldrich), 2 mM GlutaMAX (Thermo Fisher Scientific, MA, USA), 100 μg/mL penicillin/streptomycin (Thermo Fisher Scientific) and 10% non-heat inactivated foetal bovine serum (FBS) (Bovogen Biologicals, Victoria, Australia). The simulated ischaemia–reperfusion injury was performed as described in Rosdah et al.[25]. To simulate ischaemia, cells were cultured in ischaemic buffer (25 mM NaHEPES, 1 mM KH2PO4, 10 mM NaHCO3, 74 mM NaCl, 1.2 mM MgCl2.6H2O, 16 mM KCl, 1.2 mM CaCl2, 10 mM 2-deoxy-d-glucose) and hypoxia (< 0.1% O2) was induced in an airtight GENBox anaerobic chamber containing a Genbox Anaer generator sachet (BioMérieux, Marcy l’Etoile, France) at 37 °C. […] Cell death was determined by staining with 1 μg/mL propidium iodide and 3 μg/mL Hoechst 33258. The number of dead cells (propidium iodide positive) was counted and expressed as a percentage over total number of cells (Hoechst 33258 positive). At least 100 cells were counted per group for each independent experiment.

[3] = test system: Human foreskin fibroblasts (HFF-1); experiment: Hydrogen peroxide-induced oxidative stress, cell death; assay type: cell-based; conditions: 50 µM compound, 3 mM hydrogen peroxide, compared to DMSO control
Method: Human foreskin fibroblasts (HFF-1, ATCC, VA, USA) were treated with 3 mM hydrogen peroxide plus vehicle control (0.1% DMSO), Mdivi-1 (50 µM) or individual compound at 50 µM. After 2.5–3 h of incubation at 37 °C in a humidified 5% CO2 incubator, cells were stained with 1 μg/mL propidium iodide and 3 μg/mL Hoechst 33258 to determine the percentage of dead cells. Images were captured at 20 × objective with an inverted microscope (Olympus IX71). The number of dead cells (propodium iodide positive) was counted and expressed as a percentage over total number of cells (Hoechst 33258 positive). At least 100 cells were counted per group for each independent experiment.

[4] = test system: Drp1 wild type MEFs; experiment: Mitochondrial morphology analysis in Drp1 wild type MEF; assay type: cell-based, mouse; conditions: statistical significance at 10 and 50 µM
Method: (§2) Human foreskin fibroblasts and Drp1 wildtype and KO MEF (kindly provided by Professor Hiromi Sesaki, Johns Hopkins University, USA)[28],[29] were transduced with pAS2.EYFP.puro lentiviruses (RNAiCore, Academia Sinica, Taiwan) carrying the mitochondrial-targeted EGFP sequence as described in Kalkhoran et al.[30]. Cells were then treated with DRP1i27 (5, 10 or 50 µM) or 0.1% DMSO vehicle control for 24 h.
(§3) Mitochondrial morphology in HL-1 cells were visualised by immunostaining of mitochondrial Hsp60 antibody (Abcam, MA, USA). Images were acquired using Olympus BX60 fluorescence microscope at 600 × magnification and analysed using Fiji imaging software (ImageJ v1.53c). Cells were categorised into predominantly (> 50%) having fused or fragmented mitochondria. At least 100 cells were analysed for each treatment group.

[5] = test system: Drp1 KO MEFs; experiment: Mitochondrial morphology analysis in Drp1 KO MEF; assay type: cell-based, mouse; conditions: Drp1 KO MEFs, 5, 10 or 50 µM
Method: as §2, §3

[6] = test system: HL-1 cells; experiment: Mitochondrial morphology in HL-1 cells under simulated ischaemia-reperfusion injury; assay type: cell-based, Murine; conditions: 50 µM, DMSO 63.14 ± 8.12%
Method: as §1, with “al.[25].” for “al.[25]. To simulate ischaemia, cells were cultured in ischaemic buffer (25 mM NaHEPES, 1 mM KH2PO4, 10 mM NaHCO3, 74 mM NaCl, 1.2 mM MgCl2.6H2O, 16 mM KCl, 1.2 mM CaCl2, 10 mM 2-deoxy-d-glucose) and hypoxia (< 0.1% O2) was induced in an airtight GENBox anaerobic chamber containing a Genbox Anaer generator sachet (BioMérieux, Marcy l’Etoile, France) at 37 °C.”
as §3, with “Cells were categorised into predominantly (> 50%) having fused or fragmented mitochondria.” left out

T1 sequence (O00429 1-699 isoform O00429-4): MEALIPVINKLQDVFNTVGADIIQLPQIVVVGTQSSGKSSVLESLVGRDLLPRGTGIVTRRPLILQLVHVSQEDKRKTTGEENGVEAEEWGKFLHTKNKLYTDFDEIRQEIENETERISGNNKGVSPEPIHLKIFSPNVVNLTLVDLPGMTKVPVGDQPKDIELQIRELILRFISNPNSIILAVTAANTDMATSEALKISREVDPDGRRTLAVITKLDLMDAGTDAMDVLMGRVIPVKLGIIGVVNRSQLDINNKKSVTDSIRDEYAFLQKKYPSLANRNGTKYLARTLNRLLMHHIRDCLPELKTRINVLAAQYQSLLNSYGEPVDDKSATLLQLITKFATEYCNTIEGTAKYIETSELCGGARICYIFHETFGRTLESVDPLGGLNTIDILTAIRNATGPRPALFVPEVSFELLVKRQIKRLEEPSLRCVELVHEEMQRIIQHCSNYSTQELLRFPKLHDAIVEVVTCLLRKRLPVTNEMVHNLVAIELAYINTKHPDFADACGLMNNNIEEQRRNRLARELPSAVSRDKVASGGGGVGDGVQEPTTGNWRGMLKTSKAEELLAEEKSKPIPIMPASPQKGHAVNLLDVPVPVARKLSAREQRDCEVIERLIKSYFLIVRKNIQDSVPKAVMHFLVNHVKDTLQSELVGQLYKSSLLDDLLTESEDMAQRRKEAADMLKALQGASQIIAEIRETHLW

SMILES: Cc1nc[nH]c1CN1C[C@@H]2CC[C@H](C1)N(Cc1ccc(-c3cc[nH]n3)o1)C2 [DRP1i27]
- pKd [1]: 3.72
- cell death [2]: 15.17 ± 3.67%
- cell death induced by hydrogen peroxide [3]: significant reduction
- cellular networks of mitochondria [4]: dose-dependent response
- cellular networks of mitochondria [5]: no significant effect
- percentage of cells with fragmented mitochondria [6]: 36.62 ± 7.37%
